Laboratory results from PMC9021288 (Nature Communications, 2022).
“And” between values parts separate entries of the source, which are not always exact repeats. Identical values can stand only once.

What was measured:
[1] = tested on: P. falciparum (NF54-HGL) stage V gametocytes fed to A. stephensi; experiment: Transmission-blocking mosquito feeding assay (oocyst luminescence); assay type: cell-based, Plasmodium falciparum
Method: The transmission-blocking activity of compounds was determined as described previously. Briefly, NF54-HGL parasites were set up at 1% parasitemia in a semi-automated shaker system at 5% hematocrit. […] Eight days after the feed, luminescence was quantified to determine oocyst intensity.

[2] = tested on: mouse primary hepatocytes; experiment: Hepatocyte stability, mouse; assay type: in vitro ADME
dog primary hepatocytes = experiment: Hepatocyte stability, dog; assay type: in vitro ADME
[3] = Metabolite identification in dog plasma and urine; conditions: in vivo
Renal excretion in rats = assay type: in vivo, rat
Method: A blood sample from the saphenous vein was collected into heparinized capillary tubes at multiple intervals between 0.25 and 24 h after dosing. Subsequently, samples were spun down at 1640 g for 5-10 min at 4 °C within 30 min after collection and plasma was collected. […] Urine was collected following an intravenous dose in both rat and dog, allowing renal clearance to be estimated. Human renal clearance was estimated from dog renal clearance as previously described[40] and other human PK parameters were predicted using allometric scaling and/or in vitro clearance data. PK parameters were calculated by naïve pooled approach using WinNonLin software (Phoenix, version 6.3).

[4] = 7-day Maximum Tolerated Dose 1 (MTD1) rat study; assay type: in vivo, Wistar Han rats; parameters: AUC(0 - t) / Cmax / Urea / Glucose / Triglycerides: unit not given here
Excerpt: See the summary of the study design in Supplementary Table 31. Nine-week-old Wistar (Crl:WI (Han)) rats were obtained from Charles River Laboratories (Domaine des Oncins, Saint-Germain-Nuelles, France). […] Animals were examined daily for any altered clinical signs, body weights, and food consumption. Blood samples were taken at different timepoints after the test item administration, and toxicokinetic exposure assessed under the defined experimental conditions and analyzed using Phoenix (version 6.4 and 1.4) (Supplementary Table 32). Measurements included hematology and clinical chemistry measurements. Animals were euthanized and necropsied at the end of the dosing period. At necropsy, major organ systems and tissues were collected and weighed and then examined for gross lesions as well as for microscopic changes.

C[C@@H](CNC(=O)[C@H](O)C(C)(C)CO)NC(=O)c1cc(F)c(F)cc1F [MMV693183]
midgut infection ([1]; 1 µM directly at the time of the mosquito feed): did not inhibit midgut infection
IC50 ([1]; gametocytes treated 24 h before feeding to A. stephensi, read-out: IC50 oocyst formation): 38 nM
Compound Remaining (% of 0 min) ([2]; 0 min): 100%
Compound Remaining (% of 0 min) ([2]; 5 min): 114%
Compound Remaining (% of 0 min) ([2]; 10 min): 109%
Compound Remaining (% of 0 min) ([2]; 20 min): 103%
Compound Remaining (% of 0 min) ([2]; 40 min): 101%
Compound Remaining (% of 0 min) ([2]; 60 min): 105%
Compound Remaining (% of 0 min) (dog primary hepatocytes; 0 min): 100%
Compound Remaining (% of 0 min) (dog primary hepatocytes; 5 min): 92.3%
Compound Remaining (% of 0 min) (dog primary hepatocytes; 10 min): 91.7%
Compound Remaining (% of 0 min) (dog primary hepatocytes; 20 min): 92.7%
Compound Remaining (% of 0 min) (dog primary hepatocytes; 40 min): 85.2%
Compound Remaining (% of 0 min) (dog primary hepatocytes; 60 min): 83.9%
detected in Plasma [3]: Yes
detected in Urine [3]: Yes
Urine fraction (Renal excretion in rats; Mean): 0.36
Observed renal plasma clearance (Renal excretion in rats; Rat): 7.7 mL/min/kg
Concentration corrected for dilution (Renal excretion in rats; rat urine after IV dosing, 400x diluted samples, individual rats R4, R5, R6): 27920.0 ng/mL and 106400.0 ng/mL and 15600.0 ng/mL
drug eliminated in urine (Renal excretion in rats; rats, i.v. 3 mg/kg): 36-40%
mortality ([4]; 60, 200, 600 mg/kg/day, 7 days): no mortality occurred
Glucose ([4]; Female, 60 mg/kg): 6.25 and 5.62 and 5.48
Triglycerides ([4]; Female, 60 mg/kg): 0.3 and 0.46 and 0.39
Urea ([4]; Female, 60 mg/kg): 6.7 and 8 and 8.3
Glucose ([4]; Female, 200 mg/kg): 5.19 and 5.85 and 7.06
Triglycerides ([4]; Female, 200 mg/kg): 0.51 and 0.91 and 0.6
Urea ([4]; Female, 200 mg/kg): 7.8 and 8 and 8.4
Glucose ([4]; Female, 600 mg/kg): 6.4 and 7.42 and 7.56
Triglycerides ([4]; Female, 600 mg/kg): 0.6 and 0.51 and 0.37
Urea ([4]; Female, 600 mg/kg): 7.4 and 6.8 and 9.9
Liver weight ([4]; MTD1 60 mg/kg/day, Females): 4.77 g
AUC(0 - t) ([4]; MTD1 60 mg/kg/day, Females, Day 1 then Day 7): 88.9
Liver weight ([4]; MTD1 60 mg/kg/day, Males): 7.73 g
Liver weight ([4]; MTD1 200 mg/kg/day, Females): 6.00 g
Liver weight ([4]; MTD1 200 mg/kg/day, Males): 8.66 g
Liver weight ([4]; MTD1 600 mg/kg/day, Females): 7.44 g
Liver weight ([4]; MTD1 600 mg/kg/day, Males): 11.22 g
Concentration ([4]; MTD1 females, Day 1, 60 mg/kg/day, 0 h): LLOQ
Concentration ([4]; MTD1 females, Day 1, 60 mg/kg/day, 1 h): 33.6 µM and 28.3 µM
Concentration ([4]; MTD1 females, Day 1, 60 mg/kg/day, 4 h): 2.9 µM and 3.29 µM
Concentration ([4]; MTD1 females, Day 1, 60 mg/kg/day, 8 h): 1.05 µM and 0.628 µM
Concentration ([4]; MTD1 females, Day 1, 60 mg/kg/day, 24 h): LLOQ
Concentration ([4]; MTD1 females, Day 1, 200 mg/kg/day, 0 h): LLOQ
Concentration ([4]; MTD1 females, Day 1, 200 mg/kg/day, 1 h): 86.7 µM and 116 µM
Concentration ([4]; MTD1 females, Day 1, 200 mg/kg/day, 4 h): 21.3 µM and 11.6 µM
Concentration ([4]; MTD1 females, Day 1, 200 mg/kg/day, 8 h): 6.7 µM and 4.68 µM
Concentration ([4]; MTD1 females, Day 1, 600 mg/kg/day, 0 h): LLOQ
Concentration ([4]; MTD1 females, Day 1, 600 mg/kg/day, 1 h): 311 µM
Concentration ([4]; MTD1 females, Day 1, 600 mg/kg/day, 4 h): 74.9 µM and 64.8 µM
Concentration ([4]; MTD1 females, Day 1, 600 mg/kg/day, 8 h): 49.5 µM and 25.8 µM
Concentration ([4]; MTD1 females, Day 1, 600 mg/kg/day, 24 h): LLOQ
Concentration ([4]; MTD1 females, Day 7, 60 mg/kg/day, 0 h): LLOQ
Concentration ([4]; MTD1 females, Day 7, 60 mg/kg/day, 1 h): 21.8 µM and 20.3 µM
Concentration ([4]; MTD1 females, Day 7, 60 mg/kg/day, 4 h): 2.9 µM and 3.02 µM
Concentration ([4]; MTD1 females, Day 7, 60 mg/kg/day, 8 h): 0.604 µM and 1.2 µM
Concentration ([4]; MTD1 females, Day 7, 60 mg/kg/day, 24 h): LLOQ
Concentration ([4]; MTD1 females, Day 7, 200 mg/kg/day, 0 h): LLOQ
Concentration ([4]; MTD1 females, Day 7, 200 mg/kg/day, 1 h): 10.4 µM and 9.61 µM
Concentration ([4]; MTD1 females, Day 7, 200 mg/kg/day, 4 h): 5.35 µM and 3.22 µM
Concentration ([4]; MTD1 females, Day 7, 200 mg/kg/day, 8 h): 0.804 µM and 0.957 µM
Concentration ([4]; MTD1 females, Day 7, 200 mg/kg/day, 24 h): LLOQ
Concentration ([4]; MTD1 females, Day 7, 600 mg/kg/day, 0 h): 0.568 µM and 0.368 µM
Concentration ([4]; MTD1 females, Day 7, 600 mg/kg/day, 1 h): 15.1 µM and 29.6 µM
Concentration ([4]; MTD1 females, Day 7, 600 mg/kg/day, 4 h): 8.62 µM and 9.68 µM
Concentration ([4]; MTD1 females, Day 7, 600 mg/kg/day, 8 h): 6.83 µM and 6.42 µM
Concentration ([4]; MTD1 males, Day 1, 60 mg/kg/day, 0 h): LLOQ
Concentration ([4]; MTD1 males, Day 1, 60 mg/kg/day, 1 h): 12 µM and 13.7 µM
Concentration ([4]; MTD1 males, Day 1, 60 mg/kg/day, 4 h): 1.09 µM and 1.97 µM
Concentration ([4]; MTD1 males, Day 1, 60 mg/kg/day, 24 h): LLOQ
Concentration ([4]; MTD1 males, Day 1, 200 mg/kg/day, 0 h): LLOQ
Concentration ([4]; MTD1 males, Day 1, 200 mg/kg/day, 1 h): 98.9 µM and 133 µM
Concentration ([4]; MTD1 males, Day 1, 200 mg/kg/day, 4 h): 14 µM and 18.5 µM
Concentration ([4]; MTD1 males, Day 1, 200 mg/kg/day, 24 h): LLOQ
Concentration ([4]; MTD1 males, Day 1, 600 mg/kg/day, 0 h): LLOQ
Concentration ([4]; MTD1 males, Day 1, 600 mg/kg/day, 1 h): 189 µM and 295 µM
Concentration ([4]; MTD1 males, Day 1, 600 mg/kg/day, 4 h): 69.9 µM and 98.6 µM
Concentration ([4]; MTD1 males, Day 7, 60 mg/kg/day, 0 h): LLOQ
Concentration ([4]; MTD1 males, Day 7, 60 mg/kg/day, 1 h): 2.78 µM and 3.29 µM
Concentration ([4]; MTD1 males, Day 7, 60 mg/kg/day, 8 h): LLOQ
Concentration ([4]; MTD1 males, Day 7, 60 mg/kg/day, 24 h): LLOQ
Concentration ([4]; MTD1 males, Day 7, 200 mg/kg/day, 0 h): LLOQ
Concentration ([4]; MTD1 males, Day 7, 200 mg/kg/day, 1 h): 15.5 µM and 8.65 µM
Concentration ([4]; MTD1 males, Day 7, 200 mg/kg/day, 4 h): 2.92 µM and 2.95 µM
Concentration ([4]; MTD1 males, Day 7, 200 mg/kg/day, 8 h): 1.04 µM and 0.952 µM
Concentration ([4]; MTD1 males, Day 7, 200 mg/kg/day, 24 h): LLOQ
Concentration ([4]; MTD1 males, Day 7, 600 mg/kg/day, 0 h): LLOQ
Concentration ([4]; MTD1 males, Day 7, 600 mg/kg/day, 4 h): 4.9 µM and 5.09 µM
Concentration ([4]; MTD1 males, Day 7, 600 mg/kg/day, 24 h): LLOQ
Liver weight ([4]; MTD1 study, females, 60 mg/kg/day, individual animals): 4.84 g and 4.87 g
Liver weight ([4]; MTD1 study, females, 200 mg/kg/day, individual animals): 6.04 g and 5.86 g
Liver weight ([4]; MTD1 study, females, 600 mg/kg/day, individual animals): 6.96 g
Liver weight ([4]; MTD1 study, males, 60 mg/kg/day, individual animals): 8.13 g and 7.71 g
Liver weight ([4]; MTD1 study, males, 200 mg/kg/day, individual animals): 7.63 g and 8.4 g
Liver weight ([4]; MTD1 study, males, 600 mg/kg/day, individual animals): 11.11 g and 12.08 g
Triglycerides ([4]; Male, 60 mg/kg): 0.56 and 0.92 and 0.69
Urea ([4]; Male, 60 mg/kg): 6.5 and 7.4 and 9.1
Glucose ([4]; Male, 60 mg/kg, 7 days, per rat): 7.28 and 9.9 and 8.53
Glucose ([4]; Male, 200 mg/kg): 7.64 and 9.24 and 10.45
Triglycerides ([4]; Male, 200 mg/kg): 0.58 and 0.71 and 0.55
Urea ([4]; Male, 200 mg/kg): 8.3 and 8.1 and 9.4
Glucose ([4]; Male, 600 mg/kg): 5.54 and 8.3 and 8.46
Triglycerides ([4]; Male, 600 mg/kg): 0.57 and 0.62 and 0.56
Urea ([4]; Male, 600 mg/kg): 9.5 and 9.2 and 8.3
increase in liver weight ([4]; males, 600 mg/kg/day): up to 71%
hematological and clinical chemistry parameters ([4]; rat, in vivo): no significant treatment-related deviations
